Measurements: ChEMBL document CHEMBL1201862, “PubChem BioAssay data set” (2004)
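Tested at 5 concentrations; 48 h exposure; 96-well plates; endpoints linearly interpolated, else capped at highest concentration. At the GI50, growth is halved.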 Calls of active or inactive are those of the source. Rule as the data show it: active = GI50 up to about 1.1 µM and inactive = higher.

Experiments:
Experiment in all cases: NCI tumour cell line growth inhibition, 48 h
SN12C = system: SN12C
NCI-H522 = system: NCI-H522
HOP-92 = system: HOP-92
DU-145 = system: DU-145
HL-60 = system: HL-60
TK-10 = system: TK-10
HT-29 = system: HT-29
LOX IMVI = system: LOX IMVI
RXF 393 = system: RXF 393
OVCAR-3 = system: OVCAR-3
HCT-116 = system: HCT-116
OVCAR-5 = system: OVCAR-5
SF-539 = system: SF-539
SK-OV-3 = system: SK-OV-3
MCF7 = system: MCF7
UO-31 = system: UO-31
UACC-62 = system: UACC-62
NCI-H460 = system: NCI-H460
A549 = system: A549
NCI-H226 = system: NCI-H226
SW-620 = system: SW-620
NCI/ADR-RES = system: NCI/ADR-RES
T47D = system: T47D
PC-3 = system: PC-3
UACC-257 = system: UACC-257
SK-MEL-5 = system: SK-MEL-5
CCRF-CEM = system: CCRF-CEM
K562 = system: K562
Hs-578T = system: Hs-578T
SR = system: SR
MDA-MB-435 = system: MDA-MB-435
RPMI-8226 = system: RPMI-8226
COLO 205 = system: COLO 205
ACHN = system: ACHN
U-251 = system: U-251
MDA-N = system: MDA-N
SK-MEL-2 = system: SK-MEL-2
SF-268 = system: SF-268
OVCAR-8 = system: OVCAR-8
SNB-19 = system: SNB-19
KM12 = system: KM12
NCI-H23 = system: NCI-H23
HCT-15 = system: HCT-15
M14 = system: M14
Malme-3M = system: Malme-3M
786-0 = system: 786-0
EKVX = system: EKVX
IGROV-1 = system: IGROV-1
SF-295 = system: SF-295
MOLT-4 = system: MOLT-4
BT-549 = system: BT-549
A498 = system: A498
HCC 2998 = system: HCC 2998
HOP-62 = system: HOP-62

In the case of `Cc1ccc(S(N)(=O)=O)cc1` [P-TOLUENESULFONAMIDE], the GI50 (SN12C) is reported as > 1000 µM (inactive), the GI50 (NCI-H522) is reported as > 1000 µM (inactive) and the GI50 (HOP-92) is reported as 558 µM (inactive). The GI50 (DU-145) was > 1000 µM (inactive), the GI50 (HL-60) was > 1000 µM (inactive) and the GI50 (TK-10) was > 1000 µM (inactive). The GI50 (HT-29) was > 1000 µM (inactive), the GI50 (LOX IMVI) was > 1000 µM (inactive) and the GI50 (RXF 393) was 502 µM (inactive). The GI50 (OVCAR-3) was > 1000 µM (inactive), the GI50 (HCT-116) was > 1000 µM (inactive) and the GI50 (OVCAR-5) was > 1000 µM (inactive). The GI50 (SF-539) was > 1000 µM (inactive), the GI50 (SK-OV-3) was > 1000 µM (inactive) and the GI50 (MCF7) was > 1000 µM (inactive). For the same molecule, the GI50 (UO-31) was > 1000 µM (inactive), the GI50 (UACC-62) was > 1000 µM (inactive) and the GI50 (NCI-H460) was > 1000 µM (inactive). For the same molecule, the GI50 (A549) was > 1000 µM (inactive), the GI50 (NCI-H226) was > 1000 µM (inactive) and the GI50 (SW-620) was > 1000 µM (inactive). For the same molecule, the GI50 (NCI/ADR-RES) was > 1000 µM (inactive), the GI50 (T47D) was > 1000 µM (inactive) and the GI50 (PC-3) was > 1000 µM (inactive). For the same molecule, the GI50 (UACC-257) was > 1000 µM (inactive), the GI50 (SK-MEL-5) was > 1000 µM (inactive) and the GI50 (CCRF-CEM) was > 1000 µM (inactive). For the same molecule, the GI50 (K562) was > 1000 µM (inactive), the GI50 (Hs-578T) was > 1000 µM (inactive) and the GI50 (SR) was > 1000 µM (inactive). The GI50 (MDA-MB-435) was > 1000 µM (inactive), the GI50 (RPMI-8226) was > 1000 µM (inactive) and the GI50 (COLO 205) was > 1000 µM (inactive). For the same molecule, the GI50 (ACHN) was > 1000 µM (inactive), the GI50 (U-251) was > 1000 µM (inactive) and the GI50 (MDA-N) was > 1000 µM (inactive). The GI50 (SK-MEL-2) was > 1000 µM (inactive), the GI50 (SF-268) was > 1000 µM (inactive) and the GI50 (OVCAR-8) was > 1000 µM (inactive). For the same molecule, the GI50 (SNB-19) was > 1000 µM (inactive), the GI50 (KM12) was > 1000 µM (inactive) and the GI50 (NCI-H23) was > 1000 µM (inactive). For the same molecule, the GI50 (HCT-15) was greater than 1000 µM, the GI50 (M14) was > 1000 µM (inactive) and the GI50 (Malme-3M) was > 1000 µM (inactive). The GI50 (786-0) was > 1000 µM (inactive), the GI50 (EKVX) was > 1000 µM (inactive) and the GI50 (IGROV-1) was > 1000 µM (inactive). The GI50 (SF-295) was > 1000 µM (inactive), the GI50 (MOLT-4) was > 1000 µM (inactive) and the GI50 (BT-549) was 977 µM (inactive). For the same molecule, the GI50 (A498) was > 1000 µM (inactive), the GI50 (HCC 2998) was > 1000 µM (inactive) and the GI50 (HOP-62) was > 1000 µM (inactive).
